Measured values: patent US5698563A, “Bis-[hydrazones]” (Alteon Inc., priority 1995, dated 1997)
Counter-ions that a name gives are not always drawn.

Tests used:
[1] = tested on: cross-linking of glycated bovine serum albumin (AGE-BSA) to the rat tail tendon collagen; test: Inhibition of cross-linking of glycated bovine serum albumin (AGE-BSA) to rat tail tendon collagen coated 96-well plate (ELISA); assay type: biochemical; conditions: 4 h, pH 7.4
Experimental: The following method was used to evaluate the ability of the compounds of the present invention to inhibit the cross-linking of glycated bovine serum albumin (AGE-BSA) to the rat tail tendon collagen coated 96-well plate.
The AGE-BSA was prepared by incubating BSA at a concentration of 200 mg per ml with 200 mM glucose in 0.4M sodium phosphate buffer, pH 7.4 at 37° C. for 12 weeks. The glycated BSA was then extensively dialyzed against phosphate buffer solution (PAS) for 48 hours with additional 5 times buffer exchanges. The rat tail tendon collagen coated plate was blocked first with 300 μl of superbloc blocking buffer (Pierce #37515X) for one hour. The blocking solution was removed from the wells by washing the plate twice with PAS-Tween 20 solution (0.05% Tween 20) using a NUNC-multiprobe or Dynatech ELISA-plate washer. Cross-linking of AGE-BSA (1 to 10 μg per well depending on the batch of AGE-BSA) to rat tail tendon collagen coated plate was performed with and without the testing compound dissolved in PAS buffer at pH 7.4 at the desired concentrations by the addition of 50 μl each of the AGE-BSA diluted in PAS or in the testing compound at 37° C. for 4 hours. The unbrowned BSA in PAS buffer with or without testing compound were added to the separate wells as the blanks. The un-cross-linked AGE-BSA was then removed by washing the wells three times with PAS-Tween buffer. The cross-linked AGE-BSA to the tail tendon coated plate was then quantitated by the polyclonal antibody raised against AGE-RNase. After a one-hour incubation period, AGE antibody was removed by washing 4 times with PAS-Tween.
The bound AGE antibody was then detected with the addition of horseradish peroxidase-conjugated secondary antibody, e.g., goat anti-rabbit immunoglobulin and incubation for 30 minutes. The substrate of 2,2-azino-di(3-ethylbenzthiazoline sulfonic acid) (ABTS chromogen) (Zymed #00-2011) was added. The reaction was allowed for an additional 15 minutes and the absorbance was read at 410 nm in a Dynatech plate reader.
The % inhibition of each test compound was calculated as follows.
% inhibition={[Optical density (without compound)-optical density (with
compound)]/optical density (without compound)]}100%
The IC50 relative inhibition by various test compounds at 10 Mm is as follows: […]

[2] = tested on: immunoglobulin trapping in the kidney; conditions: Brownlee et al., Diabetes 1986; cited from earlier work
[3] = tested on: glomerular basement membrane; conditions: streptozotocin-diabetic rat; Brownlee et al., 1988; cited from earlier work
[4] = tested on: red blood cells; conditions: in vivo, diabetic rabbits; 100 mg/kg by oral gavage; cited from earlier work
[5] = tested on: aortic wall protein cross-linking; conditions: diabetic rats; cited from earlier work
[6] = tested on: gelatin, i.e., collagen; test: Surface browning experiment: gelatin/paper disks in glucose-6-phosphate; conditions: Peridex at a final concentration of 0.04% chlorhexidine; 100 Mm glucose-6-phosphate, one week at 50° C., pH 7.4
Experimental: To further study the ability of inhibitors of nonenzymatic browning to prevent the discoloration of protein on a surface, such as that which occurs on the tooth surface, the following surface browning experiment is performed. As a substitute for a pellicle-covered tooth surface, unexposed and developed photographic paper is used to provide a fixed protein (gelatin, i.e., collagen) surface on a paper backing. Five millimeter circles are punched and immersed for one week at 50° C. in a solution of 100 Mm glucose-6-phosphate in a 0.5M phosphate buffer, Ph 7.4, containing 3 Mm sodium azide. Glucose-6-phosphate is a sugar capable of participating in nonenzymatic browning at a more rapid rate than glucose. In addition to the glucose-6-phosphate, chlorhexidine and/or a compound of Formula I are included. After incubation, the gelatin/paper disks are rinsed with water, observed for brown color, and photographed.

[7] = tested on: dental pellicle; conditions: use of chlorhexidine; cited from earlier work
[8] = tested on: Maillard reaction; conditions: cited from earlier work; for catalysis of browning reactions in vitro: Nordbo, J. Dent. Res., 1979
[9] = tested on: RNAase; conditions: free lysine; Eble et al., 1983; cited from earlier work

Molecule | IC50 [1] | further results
C1CCC(=NNC2=NCCN2)C(=NNC2=NCCN2)C1 [1,2-cyclohexanedione bis(2-hydrazino-2-imidazoline hydrazone)dihydrobromidedihydrate] | 10 µM | 
C1CN=C(NN=C2CCCCC2=NNC2=NCCCN2)NC1 [1,2-cyclohexanedione bis(2-tetrahydropyrimidine)hydrazone dihydrobromide] | 6.7 µM | 
C1=CC(=NNC2=NCCN2)C=CC1=NNC1=NCCN1 [1,4-benzoquinone bis(2-hydrazino-2-imidazoline hydrazone) dihydrobromide] | 20 µM | 
C1CNC(NN=C2CCC(=NNC3=NCCN3)CC2)=N1 [1,4-cyclohexane dione bis(2-hydrazino-2-imidazoline hydrazone]dihydrobromide dihydrate] | 100 µM | 
CC(=NNC1=NCCCN1)C(C)=NNC1=NCCCN1 [2,3-butanedione bis(2-tetrahydropyrimidine)hydrazone dihydrobromide] | 4.1 µM | 
CCCC(=NNC1=NCCCN1)C(C)=NNC1=NCCCN1 [2,3-hexanedione bis(2-tetrahydropyrimidine)hydrazone dihydrobromide] | 33 µM | 
C(=NNC1=NCCN1)c1cc2ccccc2cc1C=NNC1=NCCN1 [2,3-naphthalene dialdehyde bis(2-hydrazino-2-imidazoline hydrazone)dihydrobromide dihydrate] | 30 µM | 
CC(CC(C)=NNC1=NCCN1)=NNC1=NCCN1 [2,4-pentanedione bis(2-hydrazino-2-imidazoline hydrazone)dihydrobromide] | 40 µM | 
N=C(N)NN [aminoguanidine] |  | immunoglobulin trapping in the kidney [2]: reduction of immunoglobulin trapping in the kidney; intervention in the development of diabetic nephropathy [3]: intervenes in the development of diabetic nephropathy; diabetes-induced changes in the deformability of red blood cells [4]: has been shown to prevent it in vivo; aortic wall protein cross-linking [5]: diminishes aortic wall protein cross-linking
[H]/N=C(\N/C(=N/[H])NCCCCCCNC(=N)NC(=N)Nc1ccc(Cl)cc1)Nc1ccc(Cl)cc1 [chlorhexidine] |  | browning of gelatin disks with chlorhexidine [6]: significant browning; dental pellicle [7]: increased dental pellicle; catalysis of browning reactions in vitro [8]: catalyze browning reactions in vitro; color formation in mixtures containing a sugar derivative and a source of amino groups ([8]; attributed to the Maillard reaction): increased color formation
c1coc(C(=NNC2=NCCN2)C(=NNC2=NCCN2)c2ccco2)c1 [furyl bis (2-hydrazino-2-imidazoline hydrazone) dihydrobromide] | 20 µM | 
N=C(N)NN=CC(=NNC(=N)N)c1ccco1 [furyl glyoxal bis (guanyl hydrazone)dihydrochloride dihydrate] | 310 µM | 
C(=NNC1=NCCN1)C(=NNC1=NCCN1)c1ccco1 [furyl glyoxal bis(2-hydrazino-2-imidazoline hydrazone) dihydrobromide dihydrate] | 120 ± 100 µM | 
OCCN1CCCN=C1NN=CC(=NNC1=NCCCN1CCO)c1ccco1 [furyl glyoxal bis[1-(2-hydroxyethyl)-2-hydrazino-1,4,5,6-tetrahydropyrimidine hydrazone]dimethanesulfonate dihydrate] | 20 µM | 
OCCN1CCN=C1NN=CC(=NNC1=NCCN1CCO)c1ccco1 [furyl glyoxal bis[1-(2-hydroxyethyl)-2-hydrazino-2-imidazoline hydrazone]dimethanesulfonate monohydrate] | 920 ± 260 µM | 
NCCCC[C@H](N)C(=O)O [lysine] |  | competition with lysine on RNAase for binding of glycosylated protein [9]: would compete with the lysine on RNAase for the binding of glycosylated protein
CC(C=NNC1=NCCCN1)=NNC1=NCCCN1 [methyl glyoxal bis(2-hydrazino-1,4,5,6-tetrahydropyrimidine hydrazone)dihydrobromide] | 840 ± 120 µM | 
CC(C=NNC1=NCCN1)=NNC1=NCCN1 [methyl glyoxal bis(2-hydrazino-2-imidazoline hydrazone) dihydrobromide] | 2040 ± 50 µM | 
CC(C=NNC1=NCCCN1CCO)=NNC1=NCCCN1CCO [methyl glyoxal bis[1-(2-hydroxyethyl)-2-hydrazino-1,4,5,6-tetrahydropyrimidine hydrazone]dimethanesulfonate] | 170 ± 110 µM | 
CC(C=NNC1=NCCN1CCO)=NNC1=NCCN1CCO [methyl glyoxal bis[1-(2-hydroxyethyl)-2-hydrazino-2-imidazoline hydrazone]dimethanesulfonate] | 320 ± 70 µM | 
CC(C=NNC(=N)NCCCN(C)C)=NNC(=N)NCCCN(C)C [methyl glyoxal bis[N-3-dimethylaminopropyl)hydrazinecarboximidamide hydrazone]tetrahydrobromide] | 220 ± 50 µM | 
CC(C=NNC(=N)NCC(C)(C)CN(C)C)=NNC(=N)NCC(C)(C)CN(C)C [methyl glyoxal bis[N-(2,2-dimethyl-3-dimethylaminopropyl)hydrazinecarboximidamide hydrazone]tetrahydrobromide] | 440 ± 60 µM | 
CCc1nnc(NN=CC(C)=NNc2nnc(CC)n2N)n1N [methyl glyoxal-bis-(4-amino-3-hydrazino-5-ethyl-1,2,4-triazole)hydrazone dihydrochloride] | 120 µM | 
CC(C=NNc1nnc(C(C)C)n1N)=NNc1nnc(C(C)C)n1N [methyl glyoxal-bis-(4-amino-3-hydrazino-5-isopropyl-1,2,4-triazole)hydrazone dihydrochloride] | 110 µM | 
CC(C=NNC(=N)NCCN1CCOCC1)=NNC(=N)NCCN1CCOCC1 [methylglyoxal bis{N-[2-(4-morpholino)ethyl]hydrazinecarboximidamide hydrazone}tetrahydrobromide] | 2200 ± 130 µM | 
C(=NNC1=NCCN1)c1ccccc1C=NNC1=NCCN1 [o-phthalicdicarboxaldehyde bis(2-hydrazino-2-imidazoline hydrazone)dihydrobromide monohydrate] | 430 ± 80 µM | 
N=C(N)NN=CC(=NNC(=N)N)c1ccccc1 [phenyl glyoxal bis(guanylhydrazone)dihydrochloride] | 340 ± 190 µM | 
OCCN1CCCN=C1NN=CC(=NNC1=NCCCN1CCO)c1ccccc1 [phenyl glyoxal bis[1-(2-hydroxyethyl)-2-hydrazino-1,4,5,6-tetrahydropyrimidine hydrazone]dimethanesulfonate dihydrate] | 70 ± 100 µM | 
OCCN1CCN=C1NN=CC(=NNC1=NCCN1CCO)c1ccccc1 [phenyl glyoxal bis[1-(2-hydroxyethyl)-2-hydrazino-2-imidazoline hydrazone]dimethanesulfonate dihydrate] | 90 ± 130 µM | 
benzalkonium chloride |  | catalysis of browning reactions in vitro [8]: catalyze browning reactions in vitro
